Test results taken from ChEMBL document CHEMBL2040784, “Design and synthesis of peptides from bacterial ParE toxin as inhibitors of topoisomerases” (Eur J Med Chem, 2012).
The source made the active and inactive calls. No cut-off for these calls is given here. Where a SMILES comes first, the peptide text is derived from it.

Legend:
[1] = target: DNA topoisomerase 2-alpha (Homo sapiens) (UniProt P11388); assay: Inhibition of human topoisomerase 2-mediated DNA cleavage assessed as relaxation of supercoiled pBR322 after 1 hr by gel electrophoresis assay
[2] = test system: Escherichia coli; assay: Inhibition of Escherichia coli DNA gyrase supercoiling activity using relaxed pBR322 DNA after 1 hr by gel electrophoresis assay
[3] = test system: Escherichia coli; assay: Inhibition of Escherichia coli topoisomerase-4-mediated DNA cleavage assessed as relaxation of supercoiled pBR322 after 1 hr by gel electrophoresis assay
[4] = test system: Escherichia coli; assay: Inhibition of Escherichia coli DNA gyrase supercoiling activity using relaxed pBR322 DNA at 20 umol/L after 1 hr by gel electrophoresis assay
[5] = test system: Escherichia coli; assay: Inhibition of Escherichia coli topoisomerase-4-mediated DNA cleavage assessed as relaxation of supercoiled pBR322 at <75 umol/L after 1 hr by gel electrophoresis assay

Sequence of DNA topoisomerase 2-alpha (Homo sapiens) (P11388 whole entry): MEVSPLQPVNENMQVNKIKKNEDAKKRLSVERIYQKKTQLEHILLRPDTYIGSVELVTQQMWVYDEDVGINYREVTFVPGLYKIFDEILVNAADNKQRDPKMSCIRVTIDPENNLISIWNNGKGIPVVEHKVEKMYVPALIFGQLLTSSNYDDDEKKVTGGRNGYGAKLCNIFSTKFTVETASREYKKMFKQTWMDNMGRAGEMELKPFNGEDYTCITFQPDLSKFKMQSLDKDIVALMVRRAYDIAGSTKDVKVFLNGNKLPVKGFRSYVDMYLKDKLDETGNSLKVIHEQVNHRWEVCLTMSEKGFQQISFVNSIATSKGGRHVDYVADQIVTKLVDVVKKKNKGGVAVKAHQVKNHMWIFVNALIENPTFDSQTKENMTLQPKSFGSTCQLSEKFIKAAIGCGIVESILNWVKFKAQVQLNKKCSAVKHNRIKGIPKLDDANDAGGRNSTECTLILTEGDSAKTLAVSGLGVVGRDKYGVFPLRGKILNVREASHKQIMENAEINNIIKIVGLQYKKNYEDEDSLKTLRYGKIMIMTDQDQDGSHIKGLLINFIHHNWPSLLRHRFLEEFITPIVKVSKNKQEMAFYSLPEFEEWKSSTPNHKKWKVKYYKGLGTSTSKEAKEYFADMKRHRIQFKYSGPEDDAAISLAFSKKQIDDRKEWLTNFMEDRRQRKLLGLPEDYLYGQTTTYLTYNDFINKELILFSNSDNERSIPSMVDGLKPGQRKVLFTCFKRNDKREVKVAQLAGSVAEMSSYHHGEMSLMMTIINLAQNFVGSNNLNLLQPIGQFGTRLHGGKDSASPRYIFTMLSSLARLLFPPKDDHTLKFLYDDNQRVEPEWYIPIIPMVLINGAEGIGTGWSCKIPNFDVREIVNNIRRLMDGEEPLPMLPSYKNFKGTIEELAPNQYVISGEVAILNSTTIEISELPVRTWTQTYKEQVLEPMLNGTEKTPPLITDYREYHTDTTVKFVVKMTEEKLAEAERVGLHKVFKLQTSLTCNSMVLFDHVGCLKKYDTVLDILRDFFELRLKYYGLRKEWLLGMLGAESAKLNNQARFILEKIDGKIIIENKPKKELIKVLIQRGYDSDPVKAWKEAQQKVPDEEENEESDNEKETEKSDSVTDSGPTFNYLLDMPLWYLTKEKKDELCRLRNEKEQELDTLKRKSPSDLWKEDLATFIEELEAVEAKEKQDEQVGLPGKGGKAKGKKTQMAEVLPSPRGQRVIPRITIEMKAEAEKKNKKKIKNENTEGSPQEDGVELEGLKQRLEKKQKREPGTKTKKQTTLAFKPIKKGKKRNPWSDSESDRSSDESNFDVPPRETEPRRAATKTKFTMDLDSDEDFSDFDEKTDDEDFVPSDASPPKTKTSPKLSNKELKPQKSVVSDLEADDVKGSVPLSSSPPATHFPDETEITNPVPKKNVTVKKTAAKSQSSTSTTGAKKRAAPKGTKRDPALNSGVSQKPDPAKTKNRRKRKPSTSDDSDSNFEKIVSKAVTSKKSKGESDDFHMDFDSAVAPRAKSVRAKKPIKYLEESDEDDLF

Row | inhibition [1] | IC100 [2] | IC100 [3] | IC100 [1] | inhibition [4] | inhibition [5] | Compound
1 | inactive | – | – | – | – | – | CC[C@H](C)[C@H](NC(=O)[C@H](C)NC(=O)[C@@H](NC(=O)[C@@H](NC(=O)[C@H](CC(C)C)NC(=O)[C@H](C)NC(=O)[C@@H]1CCCN1C(=O)[C@H](C)NC(=O)[C@H](CO)NC(=O)CNC(=O)[C@H](Cc1cnc[nH]1)NC(=O)[C@@H]1CCCN1C(=O)[C@H](CC(C)C)NC(=O)[C@H](CS)NC(=O)[C@H](Cc1ccccc1)NC(=O)[C@@H](NC(=O)[C@H](Cc1ccc(O)cc1)NC(=O)[C@H](Cc1cnc[nH]1)NC(=O)[C@H](Cc1cnc[nH]1)NC(=O)[C@H](CCC(=O)O)NC(=O)[C@H](CS)NC(=O)[C@H](Cc1cnc[nH]1)NC(=O)[C@@H](NC(=O)[C@H](CCSC)NC(=O)[C@H](CCCNC(=N)N)NC(=O)[C@@H](N)CC(C)C)[C@@H](C)CC)C(C)C)C(C)C)C(C)C)C(=O)N[C@@H](Cc1ccccc1)C(=O)O (H-LRMIHCEHHYVFCLPHGSAPALVVAIF-OH)
2 | – | 50 µmol/L | 25 µmol/L | 50 µmol/L | – | – | CC[C@H](C)[C@H](NC(=O)[C@H](CCSC)NC(=O)[C@H](CCCNC(=N)N)NC(=O)[C@@H](N)CC(C)C)C(=O)N[C@@H](Cc1cnc[nH]1)C(=O)N[C@@H](CS)C(=O)N[C@@H](CCC(=O)O)C(=O)N[C@@H](Cc1cnc[nH]1)C(=O)N[C@@H](Cc1cnc[nH]1)C(=O)N[C@@H](Cc1ccc(O)cc1)C(=O)N[C@H](C(=O)N[C@@H](Cc1ccccc1)C(=O)N[C@@H](CS)C(=O)N[C@@H](CC(C)C)C(=O)N1CCC[C@H]1C(=O)N[C@@H](Cc1cnc[nH]1)C(=O)NCC(=O)N[C@@H](CO)C(=O)N[C@@H](C)C(=O)O)C(C)C (H-LRMIHCEHHYVFCLPHGSA-OH)
3 | inactive | > 20 µmol/L | 10 µmol/L | – | 93% | – | H-PALVVAIFHERMDLMARLSER-OH
4 | – | – | – | – | – | inactive | H-HYVFCLPHGSAPALVVAIFHERMDLMARLSERLNIES-OH
